Test [1] is described as follows: Activation of human RNase L using [CY5]-r(C11-UUC7)- [BHQ2] as substrate assessed as cleavage of fluorescent substrate by measuring increase in fluorescence incubated for 30 mins by FRET assay.
For test [2], the species on record is Homo sapiens. The test is described as follows: Activation of human RNase L using [CY5]-r(C11-UUC7)- [BHQ2] as substrate assessed as cleavage of fluorescent substrate by measuring increase in fluorescence at 100 nM incubated for 30 mins by FRET assay relative to control. The following applies: filed as activator.
The species entered for test [3] is Homo sapiens. Put plainly: Activation of human RNase L assessed as reduction in Vmax using varying concentrations of [CY5]-r(C11-UUC7)- [BHQ2] as substrate incubated for 30 mins by FRET assay relative to control. The arrangement: scale not given: the % may be the effect or the level left. Particulars: filed as activator.

For orientation: EC50 means the midpoint of the concentration-response curve.

For the molecule `Nc1ncnc2c1ncn2[C@@H]1O[C@H](COP(=O)(O)O[C@@H]2[C@H](O)[C@@H](COP(=O)(O)O[C@@H]3[C@H](O)[C@@H](CSCP(=O)(O)O)O[C@H]3n3cnc4c(N)ncnc43)O[C@H]2n2cnc3c(N)ncnc32)[C@@H](O)[C@H]1O`, the EC50 in test [1] was determined as 33.8 nM. Further, the Activity was over 75% in the test listed under Homo sapiens [2] and 33% in the test filed under Homo sapiens [3].
`Nc1ncnc2c1ncn2[C@@H]1O[C@H](COP(=O)(O)O[C@@H]2[C@H](O)[C@@H](COP(=O)(O)O[C@@H]3[C@H](O)[C@@H](CNC(=O)P(=O)(O)O)O[C@H]3n3cnc4c(N)ncnc43)O[C@H]2n2cnc3c(N)ncnc32)[C@@H](O)[C@H]1O`: the concentration for a half-maximal effect (EC50) in test [1] stood at 20.9 nM. In addition, the Activity in the test listed under Homo sapiens [2] is over 75%.
For the molecule `Nc1ncnc2c1ncn2[C@@H]1O[C@H](COP(=O)(O)O[C@@H]2[C@H](O)[C@@H](COP(=O)(O)O[C@@H]3[C@H](O)[C@@H](COCC(O)P(=O)(O)O)O[C@H]3n3cnc4c(N)ncnc43)O[C@H]2n2cnc3c(N)ncnc32)[C@@H](O)[C@H]1O` (stereo partly specified), the EC50 in test [1] came to 55.2 nM. The figures for the Activity in the test filed under Homo sapiens [2] and in the test listed under Homo sapiens [3] were over 75% and 33%, respectively.
As for `Nc1ncnc2c1ncn2[C@@H]1O[C@H](COP(=O)(O)O[C@@H]2[C@H](O)[C@@H](COP(=O)(O)O[C@@H]3[C@H](O)[C@@H](COP(=O)(O)O)O[C@H]3n3cnc4c(N)ncnc43)O[C@H]2n2cnc3c(N)ncnc32)[C@@H](O)[C@H]1O`, the half-maximal effective concentration (EC50) in test [1] was 15.3 nM.
In the case of `Nc1ncnc2c1ncn2[C@@H]1O[C@H](COP(=O)(O)O[C@@H]2[C@H](O)[C@@H](COP(=O)(O)O[C@@H]3[C@H](O)[C@@H](COCP(=O)(O)O)O[C@H]3n3cnc4c(N)ncnc43)O[C@H]2n2cnc3c(N)ncnc32)[C@@H](O)[C@H]1O`, in test [1], the EC50 was 46.1 nM. Besides, the Activity was over 75% in the test filed under Homo sapiens [2] and 33% in the test filed under Homo sapiens [3].
Consider `Nc1ncnc2c1ncn2[C@@H]1O[C@H](COP(=O)(O)O[C@@H]2[C@H](O)[C@@H](COP(=O)(O)O[C@@H]3[C@H](O)[C@@H](OCP(=O)(O)O)O[C@H]3n3cnc4c(N)ncnc43)O[C@H]2n2cnc3c(N)ncnc32)[C@@H](O)[C@H]1O`, for which the concentration for a half-maximal effect (EC50) in test [1] came out at 18.9 nM. Moreover, the Activity in the test listed under Homo sapiens [2] was over 75%.
On the same counts, the results for `C[C@]1(OCP(=O)(O)O)O[C@@H](n2cnc3c(N)ncnc32)[C@H](OP(=O)(O)OC[C@H]2O[C@@H](n3cnc4c(N)ncnc43)[C@H](OP(=O)(O)OC[C@H]3O[C@@H](n4cnc5c(N)ncnc54)[C@H](O)[C@@H]3O)[C@@H]2O)[C@@H]1O` are 35.7 nM and over 75%.

The values above are taken from ChEMBL document CHEMBL5131462, “5'-Phosphonate modified oligoadenylates as potent activators of human RNase L” (Bioorg Med Chem, 2022).
